EPA's ToxRefDB 2

Key:
mouse = conditions: Subchronic oral toxicity in rodents, cd1, Feed, dose end: 13 week, group: systemic, systemic / pathology microscopic / liver / lipid deposition
dog [1] = conditions: Chronic toxicity, beagle, Oral, Feed, dose end: 52 week, group: systemic
dog [2] = conditions: Subchronic oral toxicity in nonrodent, beagle, Feed, dose end: 13 week, group: systemic, systemic / clinical chemistry / albumin-globulin ratio / albumin-globulin ratio + systemic / clinical chemistry / aspartate aminotransferase…
rat [3] = conditions: Combined chronic toxicity/carcinogenicity, sprague dawley, Oral, Feed, dose end: 104 week, group: systemic
rat [4] = conditions: Prenatal developmental toxicity study, wistar, Oral, Gavage/Intubation, dose end: 16 GD
rat [5] = conditions: Subchronic oral toxicity in rodents, sprague dawley, Feed, dose end: 13 week, group: systemic, systemic / pathology gross / kidney / discolored + systemic / in life observation / body weight / body weight + systemic / in life …
[6] = systemic / hematology / [other] / [other] + systemic / hematology / erythroblast / erythroblast + systemic / hematology / monocytes / …
[7] = systemic / hematology / erythroblast / erythroblast
[8] = systemic / in life observation / body weight / body weight + systemic / in life observation / body weight / body weight gain + systemic / in…
[9] = group: developmental, developmental / developmental malformation / kidney / dilated renal pelvis + developmental / developmental malformation / ureter / distended
[10] = group: maternal, systemic / in life observation / clinical signs / salivation

SMILES: COC(=O)c1ccc(I)cc1S(=O)(=O)[N-]C(=O)Nc1nc(C)nc(OC)n1.[Na+] [Iodosulfuron-methyl-sodium]
- LEL (mouse): 139 mg/kg/day
- LOAEL (mouse): 139 mg/kg/day
- NEL (mouse): < 139 mg/kg/day
- NOAEL (mouse): < 139 mg/kg/day
- LOAEL (dog [1]; [6]): 43.7 mg/kg/day
- NOAEL (dog [1]; [6]): 7.25 mg/kg/day
- LEL (dog [1]; [7]): 41.8 mg/kg/day
- NEL (dog [1]; [7]): 7.37 mg/kg/day
- LEL (dog [2]): 49 mg/kg/day
- LOAEL (dog [2]): 49 mg/kg/day
- NEL (dog [2]): 8.1 mg/kg/day
- NOAEL (dog [2]): 8.1 mg/kg/day
- LOAEL (rat [3]; systemic / in life observation / body weight / body weight + systemic / in life observation / body weight / body weight gain): 331 mg/kg/day
- LEL (rat [3]; [8]): 29.7 mg/kg/day
- NEL (rat [3]; [8]): 2.96 mg/kg/day
- NOAEL (rat [3]; [8]): 29.7 mg/kg/day
- LEL (rat [4]; [9]): 100 mg/kg/day
- LOAEL (rat [4]; [9]): 100 mg/kg/day
- NEL (rat [4]; [9]): < 100 mg/kg/day
- NOAEL (rat [4]; [9]): < 100 mg/kg/day
- LEL (rat [4]; [10]): 1000 mg/kg/day
- LOAEL (rat [4]; [10]): 1000 mg/kg/day
- NEL (rat [4]; [10]): 315 mg/kg/day
- NOAEL (rat [4]; [10]): 315 mg/kg/day
- LEL (rat [5]): 347 mg/kg/day
- LOAEL (rat [5]): 347 mg/kg/day
